{"source": "patent US11840513B2", "about": "“Substituted nicotinimide inhibitors of BTK for treating cancer” (GUANGZHOU INNOCARE PHARMA TECH CO., LTD., priority 2013, dated 2023)", "target": "SRC (Homo sapiens (Human), UniProt P12931)", "sequence (P12931 whole entry, looked up)": "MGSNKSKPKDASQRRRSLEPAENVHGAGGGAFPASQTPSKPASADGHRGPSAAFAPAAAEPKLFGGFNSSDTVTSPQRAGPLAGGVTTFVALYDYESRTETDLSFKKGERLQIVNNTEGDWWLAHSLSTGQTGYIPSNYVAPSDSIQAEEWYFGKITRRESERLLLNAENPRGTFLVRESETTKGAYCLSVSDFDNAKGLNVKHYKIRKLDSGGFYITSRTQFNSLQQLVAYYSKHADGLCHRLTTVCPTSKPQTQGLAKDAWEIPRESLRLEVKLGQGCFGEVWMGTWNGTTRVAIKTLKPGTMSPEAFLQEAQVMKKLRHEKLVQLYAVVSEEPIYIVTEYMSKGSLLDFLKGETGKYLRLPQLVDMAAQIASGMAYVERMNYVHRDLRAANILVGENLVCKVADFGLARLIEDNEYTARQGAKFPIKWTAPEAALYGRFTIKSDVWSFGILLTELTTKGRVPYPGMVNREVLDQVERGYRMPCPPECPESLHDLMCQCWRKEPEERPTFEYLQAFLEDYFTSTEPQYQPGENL", "assay": "kinase-tagged phage / affinity bead competition binding screen at 1000 nM (qPCR readout)", "details": "1000 nM screen"}
{"smiles": "C=CC(=O)N1CCN(c2ccc(C(N)=O)c(-c3ccc(Oc4ccccc4)cc3)n2)CC1", "note": "[Example 5, 6-(4-acryloylpiperazin-1-yl)-2-(4-phenoxyphenyl)nicotinamide]", "values": [{"measurement": "Fold Difference (BTK vs SRC)", "value": ">100", "unit": "×"}]}
